Non-standard residues stand in square brackets, D forms with d. Residues, ends and D or L forms follow the SMILES beside them. dArg(NO2) = N=C(NCCC[C@@H](N)C(=O)O)N[N+](=O)[O-]
What was measured:
recombinant rat nNOS [1] = molecular target: T1, recombinant rat nNOS (Rattus norvegicus, UniProt P29476); conditions: prior art compound; cited from earlier work
T1 construct: made in house; host or cells: E. coli

recombinant rat nNOS [2] = molecular target: T1, recombinant rat nNOS; test: NOS hemoglobin capture assay, inhibition of nNOS; type: biochemical; conditions: Dixon analysis and method of Cornish and Bowden

| Compound | selectivity for nNOS over iNOS (recombinant rat nNOS [1]) [fold] | type of inhibition of nNOS (recombinant rat nNOS [2]) |
| --- | --- | --- |
| COC(=O)[C@@H](CCCN=C(N)N[N+](=O)[O-])NC(=O)[C@H](N)Cc1ccccc1 [D-Phe-D-Arg^NO2-OMe] (H-[dF]-[dArg(NO2)]-OMe) | 1800 |  |
| N=C(NCCC[C@H](N)CNc1ccccc1CCN)N[N+](=O)[O-] [Compound 26, N-(4S)-{4-Amino-5-[2-(2-aminoethyl)phenylamino]-pentyl}-N′-nitroguanidine] |  | competitive inhibition |

Source: patent US7470815B1, “Selective neuronal nitric oxide synthase inhibitors” (Northwestern University, priority 2006, dated 2008)
